Earlier results as cited in US20220372042A1, “CONDENSED HETEROCYCLES AS BCL-2 INHIBITORS” (Newave Pharmaceutical Inc., priority 2019, published 2022).

Assays:
[1] = molecular target: T1, Bcl-w (Homo sapiens, UniProt Q92843)
T1 sequence (Q92843 1-193): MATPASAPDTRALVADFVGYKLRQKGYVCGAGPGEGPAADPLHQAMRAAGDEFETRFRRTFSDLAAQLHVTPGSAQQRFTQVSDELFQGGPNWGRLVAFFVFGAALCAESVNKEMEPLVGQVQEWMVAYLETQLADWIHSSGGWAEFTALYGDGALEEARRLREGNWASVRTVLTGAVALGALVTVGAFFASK

[2] = system: SCLC H146 cell line; conditions: read-out: IC50 against SCLC H146 cell line
[3] = system: H345 xenograft; conditions: 100 mg/kg/day, H345 xenograft model
[4] = system: xenograft models of small-cell lung cancer and acute lymphoblastic leukemia; conditions: single agent
[5] = system: circulating platelets; conditions: patients, clinical trial
[6] = system: established tumors; conditions: mouse, in vivo
[7] = in vivo
[8] = system: RS4; 11 cells
[9] = system: CLL; conditions: average; read-out: average EC50 apoptosis in CLL
[10] = system: RS4; 11 xenografts; conditions: single dose of 100 mg/kg
[11] = system: DoHH2, Granta-519 xenografts; conditions: single agent or in combination with Bendamustine and other agents
[12] = system: CLL who have 17p deletion; conditions: CLL with 17p deletion

In the case of `CC1(C)CCC(c2ccc(Cl)cc2)=C(CN2CCN(c3ccc(C(=O)NS(=O)(=O)c4ccc(N[C@H](CCN5CCOCC5)CSc5ccccc5)c(S(=O)(=O)C(F)(F)F)c4)cc3)CC2)C1` [ABT-263], the Ki [1] is given as no more than 1 nM, the IC50 [2] is given as 110 nM and the TGI [3] is given as 80%. The “treated tumors indicating at least a 50% reduction in tumor volume” value [3] was 20%, the “tumor response after oral administration alone” value [4] was “complete tumor regressions” and the “number of circulating platelets” value [5] was “rapid, concentration-dependent decrease”.

For `CN(C)CC[C@H](CSc1ccccc1)Nc1ccc(S(=O)(=O)NC(=O)c2ccc(N3CCN(Cc4ccccc4-c4ccc(Cl)cc4)CC3)cc2)cc1[N+](=O)[O-]` [ABT-737], the “efficacy in animal models” value [6] is given as “improves survival, causes regression of established tumors, and produces cures in a high percentage of the mice”, the oral bioavailability [7] is given as “not orally bioavailable” and the aqueous solubility is given as “low aqueous solubility”.

In the case of `CC1(C)CCC(CN2CCN(c3ccc(C(=O)NS(=O)(=O)c4ccc(NCC5CCOCC5)c([N+](=O)[O-])c4)c(Oc4cnc5[nH]ccc5c4)c3)CC2)=C(c2ccc(Cl)cc2)C1` [ABT-199], the EC50 [8] is listed as 8 nM, the EC50 [9] is listed as 3 nM and the “maximal tumor growth inhibition” value [10] is listed as 95%. The tumor growth delay [10] was 152%, the xenograft growth [11] was “inhibits xenograft growth” and the clinical efficacy [12] was “highly efficacious”.
